Results on 1 compound are retold here after patent US20020102533A1, “Hepatitis C protease exosite for inhibit or design” (priority 2000, published 2002).

Where a SMILES comes first, the peptide text is derived from it. [ ]: non-standard residue; d: D form. Dip = N[C@H](C(=O)O)C(c1ccccc1)c1ccccc1; Cha = N[C@@H](CC1CCCCC1)C(=O)O

The target in test [1] is T1, HCV NS3 protease, genotype 1a (Hepatitis C virus genotype 1a, UniProt P26664).
T1 construct: NS3 protease catalytic domain (amino acids 1 to 192); MGAQH expression leader (5 aa), or alternatively the 15 aa His tag […]; made in house; host or cells: E. coli BL21 (DE3)
Description: biochemical. In kind it is biochemical. Here is the method:
Endpoint HPLC based HCV protease assay: HCV protease (5 nM) was incubated in 50 mM Tris pH 7.5, 0.1% maltoside, 5 mM DTT and appropriate amounts of glycerol, NS4A peptide, and substrate. Routine assays were 100 μl in volume containing 15% or 50% glycerol, 5.0 μM NS4A peptide and 5.0 μM substrate. Reactions were run at room temperature (˜22° C.) and quenched by the addition of 4 μl of 10% TFA before 10% of the substrate was consumed. Incubation times were 20 minutes for the ester substrate (Peptide Substrate A) and 80 minutes for the P6-P7′ amide substrate (Peptide Substrate B). […] Incubation times were 90 min. Samples, 50 μl, were injected onto an Hewlett Packard 1090 Liquid Chromatograph containing a Dynamax-60A C18 column. The column was eluted with a linear gradient from 10% acetonitrile to 45% acetonitrile in water. All solvents contained 0.1% TFA. A flow rate of 1 ml/min was used. […] The product peaks were detected by fluorescence excitation at 350 nm and emission at 500 nm.
Continuous fluorescence-based HCV protease assay: This asay was a modified version of method of Taliani (Taliani, M.; et al. Anal. Biochem. 240, 60-67, 1996) using Substrate A (Ac-D-E-D(EDANS)-E-E-Abuψ[COO]-A-S-K(DABCYL)—NH2). Assays were run in a 96-well microtiter plates using a Perkin Elmer Luminescence Spectrometer LS50B exciting at 350 nm (10 nm slit) and emitting at 500 nm (10 nm slit). In a typical assay the protease (1-4 nM) was incubated with 10 μM NS4a peptide in 50 mM Tris pH 7.0, 5.0 mM DTT, 50% glycerol, and […] for 15 min. Catalysis was initiated by the addition of Substrate A (final concentration 5.0 μM). Assays were also run under conditions where 15% glycerol, 0.1% Maltoside were substituted for 50% glycerol and 5% CHAPS. Enzymatic activity was monitored by measuring the increase in fluorescence with time using excitation wavelength of 350 nm and an emission wavelength of 500 nm. Both slit widths were 10 nm. Inhibition constants were determined from a nonlinear least squares fit of the data to the equation Vi/Vo=1/(1+[I]/Kiapp). Where Vi is the velocity measured in the presence of inhibitor (inhibitors were introduced with the NS4a peptide) and Vo is the velocity of controls. The thermodynamic Ki was determined from Kiapparent via the relationship for competitive kinetics: Ki=Kiapp/(1+[S]/Km) where [S] is the substrate concentration.
Footnote a for Table 1 references the assay condiditions: 1) Substrate A=P6-P3′, HCV protease (4.0 nM) was incubated with various concentrations of truncated analogs of Q9692 in 50 mM Tris buffer, pH 7.0, 15% glycerol, 0.1% maltoside, 5 mM DTT and 10 μM NS4A peptide in a 96-well microtiter plate at room temperature. After 15 minutes catalysis was initiated by the addition of Ac-D-E-D(EDANS)-E-E-Abuψ[COO]-A-S-K(DABCYL)—NH2 (final concentration 5.0 μM in a total reaction volume of 200 μl). Enzymatic activity was monitored by measuring the increase in fluorescence with time on a Perkin Elmer LS50B luminescence spectrometer (excitation 350 nm, emission 500 nm, both slits 10 nm). […] Assays were 100 μl in volume, reactions were run at room temperature (˜22 C) for 80 minutes (<10% of the substrate was consumed). The addition of 4 μl of 10% TFA quenched the reactions. Quantitation of hydrolysis products was determined by measuring fluorescent peak areas following HPLC. Products were detected by excitation at 350 nm and measuring emission at 500 nm. Aliquots (50 μl) of quenched enzymatic reactions were injected on an Hewlett Packard 1090 HPLC equipped with a ¼ inch Dynamex 60A C18 column. A linear gradient from 10% acetonitrile:H2O to 45% acetonitrile:H2O was run over a period of 15 min at a flow rate of 1.0 ml/min. All solvents contained 0.1% TFA.

Test [2] deals with T1, HCV NS3 protease, genotype 1a. It counts as biochemical. The following applies: P6-P3′ ester substrate, NS4a=0, relative to controls without Q9692.
The target in a further test is HCV protease (Hepatitis C virus genotype 1b, UniProt P26663). To be noted: substrate Ac-[…](Edans)—NH2; cited from earlier work.
A further test has as its target T2, HCV protease 2A (Hepatitis C virus genotype 2a, UniProt P26660).
T2 construct: the catalytic domains of types 1b, 1J and 2a have also been examined
The test is described as follows: HCV protease type 2a, 13-mer substrate. It counts as biochemical. The text has this: It is understood that other forms of HCV protease may be used in an assay for the determination of inhibitors. The present invention has disclosed the 1A form of HCV protease, however, the catalytic domains of types 1b, 1J and 2a have also been examined, as well as, the full-length version of form 1b. Evidence for the exosite exists in each case. Activation by Q9692 follows the trend of activation by NS4a. Forms of the enzyme that are more sensitive to NS4a display greater stimulation by Q9692 than forms that are less sensitive. In rank order sensitivity is 1J, 1B, 1A, and 2A. The catalytic activity of 2A toward the 9-mer substrate is enhanced by only 1.5-fold at 4 μM Q9692 and becomes inhibited by Q9692 at concentrations greater than 20 μM. […] Use of alternative forms of the HCV protease is relevent to development of an inexpensive and easy continous assay.

The mark [3] stands for this setting: P6-P3′ ester substrate, 2 μM Q9692.

By Ki is commonly meant a dissociation constant, usually derived from enzyme kinetics or from competition with a known ligand.

Turning to `CC(=O)N[C@@H](CC(=O)O)C(=O)N[C@@H](CCC(=O)O)C(=O)N[C@H](C(=O)N[C@@H](CCC(=O)O)C(=O)N[C@@H](CC1CCCCC1)C(=O)N[C@@H](CS)C(=O)O)C(c1ccccc1)c1ccccc1` [Q9692, Ac-Asp-Glu-Dpa-Glu-Cha-Cys—OH] (Ac-DE[Dip]E[Cha]C-OH), the “Dixon plots of 1/V versus Q9717 concentration” value in test [1] (5 μM substrate spanning P6-P3′) is given as “intersecting lines”. Moreover, in test [1] (P6-P3′ ester substrate), the “concentration of maximum stimulation” value came out at 4 µM and the “concentrations at which inhibition was observed” value is “greater than 10.0 μM”. For the same compound, in test [1] (setting [3]), the kcat of substrate entry is “relatively unchanged” and the “reduction in Km of substrate” value worked out at 5 fold. Besides, in test [1] (P6-P3′ ester substrate, maximum at 4 μM Q9692), the “activation of the enzyme (maximum stimulation)” value is reported as “approximately 5 fold”. Further, the “(S = P6-P3′) Inhibition(+) / Activation (−)” value in test [1] (substrate A) is on record as “−”. In test [2], the “relative activity of the protease” value is around 1. For the same compound, the Ki at HCV protease was 50 nM. Also, the Ki on HCV protease 2A was around 250 nM.
